Experimental data as given in patent publication US3940482A, “Solubilization of the zinc salt of 1-hydroxy-2-pyridinethione” (priority 1973, dated 1976).

Columns and labels:
[1] = Effect of chelating/sequestering agent on biocidal activity of zinc pyridinethione; conditions: aliphatic polyamine, up to two-fold excess
[2] = Solubilization of zinc pyridinethione in water by DETA, DGA, PEI-1000 (visual observations); assay type: physicochemical
Protocol: H2 O. This 48.5 g. slurry is stirred for 1 minute. […] Also, to 0.75 g. […] H2 O. The 45.50 g. slurry is stirred for 1 minute.
**A.E. means active ingredients.

[3] = Solubilization of zinc pyridinethione in anionic shampoo base (visual observations); assay type: physicochemical
[4] = Solubilization of zinc pyridinethione in amphoteric shampoo base (visual observations)
[5] = less than one part EDTA per part pyridinethione salt shows this effect; cited from earlier work

NCCNCCN [DETA, diethylene triamine]
effect on antimicrobial activity of zinc pyridinethione [1]: does not reduce the antimicrobial activity | pH at which solution starts clouding up ([2]; pH adjusted downward with HCl): ~9.2 | precipitation at pH 8.8 ([2]; pH adjusted downward with HCl, pH 8.8): ~50% | Visual observation at pH 9.2 ([3]; anionic shampoo, pH decreased with HCl to 9.2): slightly cloudy | pH down to which shampoo remains clear ([4]; pH adjustment with HCl, smoky color at this pH): ~9.3

NCCOCCO [DGA, diglycolamine]
Solubility of zinc pyridinethione on stirring at room temperature for 3 minutes [2]: Less than 10% | Visual observation: hot plate heating until 110°F. [2]: No greater solubility. Zinc pyridinethione quickly settles | effectiveness as solubilizing agent for heavy metal salts of pyridinethione [2]: ineffective | pH of solution unadjusted ([2]; 1.5% zinc pyridinethione, 3.0% solubilizer in water): 11.2 | Visual - unadjusted [3]: Cloudy shampoo | pH - unadjusted ([3]; anionic shampoo, 1.5% zinc pyridinethione, 3.0% solubilizer): 9.0 | zinc pyridinethione soluble (visual, unadjusted pH) ([3]; anionic shampoo, unadjusted pH): < 10% | pH - unadjusted ([4]; 1.5% zinc pyridinethione, 3.0% solubilizer): 9.6

O=C(O)CN(CCN(CC(=O)O)CC(=O)O)CC(=O)O [ethylenediamine tetraacetic acid]
effect on biocidal activity of zinc pyridinethione [5]: very deleterious effect
